The target in the assay is T1, 15-PGDH (Homo sapiens, UniProt P15428).
T1 construct: purchased Sino Biological Inc. 11205-H08E
T1 sequence (P15428 1-266): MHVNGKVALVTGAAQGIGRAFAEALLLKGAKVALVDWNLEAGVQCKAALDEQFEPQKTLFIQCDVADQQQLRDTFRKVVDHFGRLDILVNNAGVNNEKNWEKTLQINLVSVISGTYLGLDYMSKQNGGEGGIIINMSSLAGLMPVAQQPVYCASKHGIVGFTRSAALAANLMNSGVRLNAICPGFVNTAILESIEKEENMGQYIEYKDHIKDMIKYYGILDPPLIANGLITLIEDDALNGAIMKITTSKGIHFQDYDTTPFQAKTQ
In words: Detection of Activity of 15-PGDH Kinase (inhibition of 15-PGDH enzyme). The assay is classed as biochemical. The settings on record: class symbols; substrates β-NAD and PGF2α, pH 7.5, fluorescence Ex/Em=340/450; read-out: IC50. As to the method:
• a. A solution of pH 7.5 containing 50 mM Tris-HCl and 0.01% Tween 20 was prepared with ultrapure water as a reaction buffer; • b. a 10 mM mother liquor of the compound to be tested was prepared with DMSO, and then the reaction buffer was used to dilute the mother liquor of the compound to be tested to obtain solution 1 of the compound to be tested at a concentration of 4000 nM, and then the solution 1 of the compound to be tested was serially diluted into solutions 2-10 of the compound to be tested at 9 concentrations with a gradient difference of three-fold. 5 μL of each concentration of solutions 1-10 of the compound to be tested was respectively taken and added into a 384-well plate as test wells; • c. 5 μL of the reaction buffer was added to the 384-well plate as positive control and blank control wells; • d. the reaction buffer was used to prepare a 15-PGDH protein solution at a concentration of 5 ng/μL, 5 μL of the 15-PGDH protein solution was taken and added to the test wells and positive control wells, and 5 μL of the reaction buffer was added to the blank control wells at the same time, then the plate was centrifuged at 2000 rpm for 30 seconds; • e. the reaction buffer was used to prepare 5 mM β-NAD and 2 mM PGF2α, respectively, which were mixed at 1:1 by volume to obtain a substrate mixture, 10 μL of the substrate mixture was taken and added to the test wells, positive control wells and blank control wells to start the reaction; • f. the fluorescence signal value (Ex/Em=340/450) of each well was detected continuously by using a multifunctional microplate reader.
• a) Continuous fluorescence signal values were analyzed by using the “kinetic calculations-slope calculation method” in the PHERAstar Data analysis software to obtain the slope of each test well; • b) the inhibition rate % was calculated by using the following formula:
inhibition rate %=[1−(slope of test well-signal value of positive control well)/(signal value of blank control well-average signal value of positive control well)]×100%. • c) calculation of IC50 and plotting of inhibition rate-dose curves: IC50 values were calculated by fitting compound concentrations and corresponding inhibition rates with a nonlinear regression (dose response-variable slope) via using GraphPad Prism 6.0.
The formula is shown below: Y=Bottom+(Top−Bottom)/(1+10^((Log IC50−X)*HillSlope)), wherein X is a log value of a concentration of the compound, and Y is inhibition rate %.
`CN1Cc2cc(-c3nc4cc(C(=O)N5CCCCC5)ccc4c4ncnn34)ccc2C1=O` [Example 76]: the IC50 is less than 2 nM. Then `Cc1nc2c3ccc(C(=O)N4CCCCC4)cc3nc(-c3ccc4c(c3)CN(C)C4=O)n2n1` [Example 77], with less than 2 nM. Then `CC(C)c1nc2c3ccc(C(=O)N4CCCCC4)cc3nc(-c3ccc4c(c3)CN(C)C4=O)n2n1` [Example 78], with 2 to 5 nM.

As to `CN1Cc2cc(-c3nc4cc(C(=O)N5CCCCC5)ccc4c4nc(C(F)(F)F)nn34)ccc2C1=O` [Example 79], the IC50 was 2 to 5 nM. Consider `CN1Cc2cc(-c3nc4cc(C(=O)N5CCCCC5)ccc4c4cccn34)ccc2C1=O` [Example 80], for which the half-maximal inhibitory concentration (IC50) was less than 2 nM. For `CN1Cc2cc(-c3nc4cc(C(=O)N5CCCCC5)ccc4c4ccnn34)ccc2C1=O` [Example 81] the value was less than 2 nM; for `CN1Cc2cc(C3=Nc4cc(C(=O)N5CCCCC5)ccc4C4=NCCN34)ccc2C1=O` [Example 82], 5 to 10 nM.

Usually IC50 stands for the concentration needed to halve the response being measured.

The values above are taken from patent US20260347365A1, “COMPOUND FOR REGULATING AND CONTROLLING 15-PGDH ACTIVITY AND PREPARATION METHOD THEREFOR” (SCINNOHUB PHARMACEUTICAL CO.,LTD, priority 2023, published 2026).
